Data published in publication PMC11249646, “Small-Molecule Disruptors of the Interaction between Calcium- and Integrin-Binding Protein 1 and Integrin αIIbβ3 as Novel Antiplatelet Agents” (ACS Pharmacology & Translational Science, 2024).
Like-named read-outs stand apart in the source and are kept apart here.

Tests used:
Type in all cases: binding
[1] = target: T1, CIB1 and αIIb interaction (GST-CIB1 : F-αIIb peptide) (Homo sapiens, UniProt Q99828); assay: FP assay, 384-well format (screen); set-up: 384-well SCREEN Efficacy (%): concentration or dose not given beside the values; conditions: F-αIIb peptide; for 384-well SCREEN Confirm?: YES/NO; for IC50: read-out: 384-well SCREEN IC50
T1 construct: made in house; host or cells: BL-21 plus RIL cells (E. coli)
T1 sequence (Q99828 1-191): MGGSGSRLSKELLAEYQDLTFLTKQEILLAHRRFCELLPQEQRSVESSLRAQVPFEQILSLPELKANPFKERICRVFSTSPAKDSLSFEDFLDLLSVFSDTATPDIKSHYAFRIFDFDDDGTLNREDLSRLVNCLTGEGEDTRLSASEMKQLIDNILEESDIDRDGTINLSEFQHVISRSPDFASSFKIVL

[2] = target: T2, GST-CIB1 : F-scrambled peptide (Homo sapiens, UniProt Q99828); assay: FP scrambled-peptide counter screen, 384-well format; conditions: F-scrambled peptide; for IC50: read-out: 384-well COUNTERSCREEN IC50; for 384-well COUNTERSCREEN Confirm?: *: Curve in opposite direction
T2 construct: made in house; host or cells: BL-21 plus RIL cells (E. coli)
T2 sequence (Q99828 1-191): T1 sequence (Q99828 1-191)

[3] = target: T3, CIB1 and αIIb interaction (CIB1-GST : F-αIIb peptide) (Homo sapiens, UniProt Q99828); assay: FP assay, 1536-well qHTS format (primary and confirmatory screen); conditions: for CONFIRMATORY SCREEN Confirm?: YES/NO call; for CONFIRMATORY SCREEN Curve Class: qHTS curve class; for CONFIRMATORY SCREEN Curve Class / Curve Class: negative sign = inhibitory curve; for CONFIRMATORY SCREEN Efficacy (%) / Efficacy (%): negative = inhibition
T3 construct: made in house; host or cells: BL-21 plus RIL cells (E. coli)
T3 sequence (Q99828 1-191): T1 sequence (Q99828 1-191)

[4] = target: T2, GST-CIB1 : F-scrambled peptide; assay: FP scrambled-peptide counter screen, 1536-well format; conditions: scrambled-peptide counterscreen; for COUNTERSCREEN Confirm?: YES/NO call; for COUNTERSCREEN Curve Class: qHTS curve class; for IC50: read-out: COUNTERSCREEN IC50
[5] = confirmatory screen, read-out: CONFIRMATORY SCREEN IC50
[6] = qHTS primary screen hits, Table S2
[7] = qHTS primary screen hits, Table S2, read-out: IC50
[8] = qHTS FP screen hits, Table S2, one class per curve where COUNT > 1
[9] = qHTS FP screen hits, Table S2, read-out: IC50
[10] = qHTS primary screen hits, Table S2, several classes where COUNT > 1

| Compound | 384-well SCREEN Efficacy (%) [1] | 384-well SCREEN Confirm? [1] | IC50 [1] | 384-well COUNTERSCREEN Efficacy (%) [2] | IC50 [2] | CONFIRMATORY SCREEN Confirm? ([3]; confirmatory screen) | CONFIRMATORY SCREEN Curve Class ([3]; confirmatory screen) | CONFIRMATORY SCREEN Efficacy (%) ([3]; confirmatory screen) | IC50 [3, 5] | Efficacy (%) [3, 6] | IC50 [3, 7] | COUNTERSCREEN Efficacy (%) [4] | COUNTERSCREEN Confirm? [4] | COUNTERSCREEN Curve Class [4] | 384-well COUNTERSCREEN Confirm? [2] | Curve Class [3, 10] | further results |
| --- | --- | --- | --- | --- | --- | --- | --- | --- | --- | --- | --- | --- | --- | --- | --- | --- | --- |
| Cc1ccc(S(=O)(=O)Nc2cc([N+](=O)[O-])ccc2C(=O)Nc2nc(-c3ccccc3)cs2)cc1.O=C(O)C(F)(F)F [NCGC00262992-01] | 135% | YES | > 120 µM | 115% | 79.4 µM | YES | -1.1 | -97% | 5.6 µM | -34% | 10 µM | 42% | YES | 4 | – | – | Curve Class [3, 6]: -2.4 |
| Cc1ccc(S(=O)(=O)Nc2cnccc2C(=O)Nc2nc(-c3ccc4c(c3)CCCC4)cs2)cc1.O=C(O)C(F)(F)F [NCGC00318953-01] | 20% | – | > 120 µM | 125% | 35.5 µM | YES | -1.2 | -70% | – | – | – | -23% | YES | 4 | – | – | Efficacy (%) ([3]; qHTS FP screen hits, Table S2): -37%; Curve Class [3, 8]: -1.2; IC50 [3, 9]: 20 µM |
| Cc1ccc(S(=O)(=O)Nc2cnccc2C(=O)Nc2nc(-c3ccc(C)c(C)c3)cs2)cc1.O=C(O)C(F)(F)F [NCGC00318954-01] | 52% | YES | 16 µM | 37% | 31.6 µM | YES | -1.4 | -70% | 22.4 µM | -61% | – | 17% | YES | 4 | YES* | -3 | – |
| Cc1ccc(S(=O)(=O)Nc2cnccc2C(=O)Nc2nc(-c3cccc(Cl)c3)cs2)cc1.O=C(O)C(F)(F)F [NCGC00318956-01] | 43% | YES | 14.2 µM | 84% | 20 µM | YES | -1.1 | -94% | – | -32% | 12.6 µM | -8.5% | YES | 4 | YES* | – | Curve Class [3, 6]: -1.4 |
| Cc1ccc(S(=O)(=O)Nc2cnccc2C(=O)Nc2nc(-c3ccc(Cl)cc3)cs2)cc1.O=C(O)C(F)(F)F [NCGC00318981-01] | 45% | – | > 120 µM | 60% | 28.2 µM | YES | -1.2 | -69% | 28.2 µM | -35% | 31.6 µM | 53% | YES | 3 | – | -1.2 | IC50 [4]: 89.1 µM |
| COc1cccc(-c2csc(NC(=O)c3ccncc3NS(=O)(=O)c3ccc(C)cc3)n2)c1 [NCGC00319006-02] | 52% | YES | 20 µM | 18% | > 120 µM | YES | -2.2 | -89% | 31.6 µM | – | – | -41% | YES | -3 | YES | – | IC50 [4]: 89.1 µM |
| Cc1ccc(-c2csc(NC(=O)c3ccncc3NS(=O)(=O)c3ccc(C)cc3)n2)cc1.O=C(O)C(F)(F)F [NCGC00319008-01] | 46% | YES | 10.7 µM | 70% | 8.9 µM | YES | -1.2 | -50% | – | – | – | 26% | YES | 4 | YES* | – | Efficacy (%) ([3]; qHTS FP screen hits, Table S2): -45%; Curve Class [3, 8]: -1.2; IC50 [3, 9]: 17.8 µM |
| Cc1ccc(S(=O)(=O)Nc2cnccc2C(=O)Nc2nc(-c3cccc(C)c3)cs2)cc1.O=C(O)C(F)(F)F [NCGC00343524-02] | 42% | YES | 10.1 µM | 60% | 14.1 µM | YES | -2.1 | -128% | 20 µM | -40% | 35.5 µM | 14% | YES | 4 | YES* | -2.2 | – |
| Cc1ccc(S(=O)(=O)Nc2cnccc2C(=O)Nc2nc(-c3nc4ccccc4s3)cs2)cc1.O=C(O)C(F)(F)F [NCGC00343736-01] | 44% | YES | 22.4 µM | 23% | > 120 µM | YES | -1.1 | -89% | – | -51% | 28.2 µM | -16% | YES | 4 | YES | – | Curve Class [3, 6]: -1.2 |
| N#Cc1cnc(NS(=O)(=O)c2ccc(NC(=O)Cc3ccc(F)c(Cl)c3)cc2)s1.O=C(O)C(F)(F)F [NCGC00343826-01] | 36% | YES | 2.2 µM | 28% | > 120 µM | YES | -1.4 | -50% | – | -29% | 2.8 µM | 24% | YES | 4 | YES | -1.2 | – |
| Cc1ccc(S(=O)(=O)Nc2cnccc2C(=O)Nc2nc3ccccc3s2)cc1.O=C(O)C(F)(F)F [NCGC00343897-01] | 30% | YES | 12.6 µM | 16% | > 120 µM | YES | -1.4 | -52% | 10 µM | -44% | 31.6 µM | 17% | YES | 4 | YES | -1.2 | – |
| N[C@@H](Cc1ccc(Oc2cc(I)c(O)c(I)c2)c(I)c1)C(=O)O [NCGC00344545-01] | 46% | YES | 10 µM | 51% | 3.1 µM | YES | -1.2 | -60% | 15.8 µM | -39% | 39.8 µM | -19% | YES | 4 | – | -2.2 | – |
| Cc1cc(SCc2sc(-c3ccc(Cl)c(Cl)c3)nc2C)ccc1OCc1nnn[nH]1.O=C(O)C(F)(F)F [NCGC00344871-01] | 42% | – | > 120 µM | 167% | 44.7 µM | YES | -1.2 | -63% | 15.8 µM | -38% | 17.8 µM | 204% | YES | – | – | -1.2 | IC50 [4]: 79.4 µM |
| O=C(Nc1nc(-c2ccccc2)cs1)c1ccncc1NS(=O)(=O)c1ccc(Cl)cc1.O=C(O)C(F)(F)F [NCGC00344892-02] | 31% | YES | 35.5 µM | 55% | > 120 µM | YES | -1.2 | -69% | 25.1 µM | – | – | 13% | YES | 4 | YES | – | – |
